Data: article PMC4992173, “Divergent synthesis and identification of the cellular targets of deoxyelephantopins” (Nature Communications, 2016)

Test system: four different cancer cell lines (MCF7, Caco-2, HeLa, MDA-MB-231)
Assay: Cell viability (EC50) in four different cancer cell lines, 3 days, nuclei count
Format: cell-based
Details: all four tested cell lines
Protocol: We began our biological investigations by assaying the cytotoxicity of natural deoxyelephantopin (DEP) and its unnatural analogues in four different cancer cell lines (Fig. 5a, Supplementary Figs 6–8).
Figure 5 Assessing the cytotoxicity of deoxyelephantopin (DEP) and analogues. (a) Cell viability measurements in four different cancer cell lines. Cells were treated with compounds for 3 days, the nuclei were stained with DAPI and counted (EC50 values±s.d. shown; n=3). **P<0.005 and ***P<0.0005 by two-sided Student's t-test. (b) Detection of caspase activation and apoptosis in MCF7 cells using FITC-VAD-FMK fluorescent probe (top) or Annexin V staining (bottom). The cells were treated with 1 μM staurosporine (positive control) or 20 μM deoxyelephantopin for 8 h. Confocal microscopy images are shown. EC50, effector concentration for half-maximum response. Scale bars, 30μm. […]
Biological materials. […] Protein concentration was determined using the Bradford assay (Bio-Rad).
Cell culture and preparation of lysates. […] Cells were lysed by sonication to form cell lysates and protein concentration was determined using the Bradford […]
’ cells/mL and HeLa: 1 ’ cells/mL) in a 96-well plate and allowed to attach overnight. […] Cells were imaged using a SpectraMax i3 plate reader equipped with a SpectraMax MiniMax imaging cytometer (Molecular Devices). […]
Caspase activity labeling for fluorescence cell imaging. […]

In the case of `C#CCC[C@H](OC(=O)C(=C)C)[C@H]1C(=C)C(=O)O[C@@H]1c1ccccc1` [24c], the “cytotoxicity rank among alkyne-tagged analogues 24” value is reported as “highest cytotoxicity”.
